# Laboratory results reported in PMC9053583, “A novel series of phenolic temozolomide (TMZ) esters with 4 to 5-fold increased potency, compared to TMZ, against glioma cells irrespective of MGMT expression” (RSC Advances, 2020).
# Read-outs that look alike come from different tables or passages of the source.
# How the values were obtained:
# 1321-N1 = test: CellTiter-Glo cytotoxicity against 1321-N1 cells; format: cell-based; conditions: Homo sapiens, 144 hours incubation, IC50 ± SD (n = 3)
# Procedure: (§1) Apoptosis of glioma cells induced by TMZ, occurs at least 120 hours after treatment.[7] Consequently, cells were incubated for 144 hours with specified TMZ analogues in the in vitro investigations in order to obtain more reliable IC50 values.
# (§2) 1321-N1 (human astrocytoma) was maintained in DMEM medium supplemented with 2 mM L-glutamine and 10% FBS. GOS-3, (human brain mixed astro-oligodendroglioma) was maintained in DMEM medium supplemented with 2 mM L-glutamine and 10% […]. U87-MG, (human glioblastoma) and SVGp12 (normal human astroglia) were maintained in EMEM medium supplemented with 2 mM L-glutamine, 1 mM sodium pyruvate and 10% FBS. All cell lines were incubated at 37 °C and 5% CO2 in a humidified incubator. Primary BTNW cultures were maintained in Ham's F10 nutrient mixture, containing 20 mM HEPES, 2 mM glutamine and 10% FBS. Primary cultures were incubated in a humidified incubator at 37 °C.
# (§3) Cells were seeded in the appropriate media in each well of a Costar 96-well plate at a density of 5 × 10^2 immortalised cells; 2 × 10^3 (primary cells). The plates were incubated at 37 °C and 5% CO2 in a humidified incubator for 24 hours to allow cells to adhere. Each of the drugs tested were dissolved in DMSO to afford a 200 mM stock solution. The stock solutions were diluted with medium to afford the final working concentrations, ensuring DMSO concentration was no greater than 0.5% (v/v). Drug concentrations were added to the cells and incubated for 144 hours. After incubation, the drug concentrations were removed and replaced with 100 μL of CellTiter-Glo® and 100 μL of media. The luminescence of each well was measured on GENios Pro plate reader. The results for each of the drug concentrations were expressed as a percentage of the control wells. For cell lines, the regression equation for a polynomial line of best fit of order 2 was used to calculate the IC50. In the case of the in vitro model used in the present study, the IC50 was defined as the concentration of drug that results in a 50% reduction in oxyluciferin production. Primary culture cells were incubated with clinically relevant concentrations for 144 hours. Viability was expressed as a percentage of the control wells. Each experiment involving cell lines was carried out in triplicate of triplicates. Experiments using patient derived primary cultures were carried out in triplicate.
# (§4) Initial screening of the 25 analogues was completed using the U87-MG cell line. The most promising analogues from the initial screening were taken forward and tested against the 1321-N1, GOS-3 and SVG-p12 cell lines. The results of all 4 cell lines were compiled and the analogues that were deemed to be the most promising drug candidates were tested against primary cultures at clinically relevant concentrations.
# GOS-3 = test: CellTiter-Glo cytotoxicity against GOS-3 cells; format: cell-based; conditions: Homo sapiens; 144 hours incubation, IC50 ± SD (n = 3)
# Procedure: as §1, §2, §3, §4
# BTNW374 (MGMT+) = test: Cell viability of patient derived primary GBM culture BTNW374 (MGMT+); format: cell-based, human; conditions: human, 144 h, 75 μM
# Procedure: (§5) Fig. 2 (A) Cell viability of BTNW914 (MGMT−) after treatment by TMZ and phenyl TMZ ester analogues at various clinically relevant concentrations and incubation for 6 days. (B) Cell Viability of BTNW374 (MGMT+) after treatment by TMZ and phenyl TMZ ester analogues at various clinically relevant concentrations. Values are reported as the percentage of viable cells ± SD, n = 3.
# (§6) Cytotoxic evaluation of the analogues was completed against 4 cell lines and 2 primary GBM cultures. The human glioma cell lines, GOS-3, U87-MG and 1321-N1 along with the human astroglial cell line, SVGp12, were purchased from The European Collection of Cell Cultures (ECCAC, UK) and Deutsche Sammlung von Mikroorganismen und Zellkulturen (DMSZ, Germany). Patient derived primary GBM cultures, BTNW374 and BTNW914, were obtained from The Brain Tumour North West Tissue Bank in collaboration with The Royal Preston Hospital. Patient data for primary cells was included as part of the ESI. ^†
# as §2, §3
# BTNW914 (MGMT−) = test: Cell viability of patient derived primary GBM culture BTNW914 (MGMT−); format: cell-based, human; conditions: Homo sapiens, 144 h; 6 days incubation; read-out: IC50 against MGMT devoid GBM primary cells
# Procedure: as §5, §6, §2, §3
# [1] = system: porcine liver esterase (PLE); test: Stability of phenolic TMZ esters on exposure to porcine liver esterase; format: in vitro ADME; conditions: pH 6, 37 °C
# Procedure: The hydrolysis was monitored by the decrease in the peak area of the corresponding TMZ esters, however, due to sensitivity of the imidazotetrazine ring to pH, the experiments were carried out at pH 6 to avoid the formation of imidazoles. The validation of the analytical method also involved investigating the stability of the imidazotetrazine ring whilst ensuring PLE retained a significant level of activity.
# A disodium phosphate, citric acid buffer (pH 6) was prepared by using disodium phosphate (Na2HPO4·12H2O, 200 mM) and citric acid (100 mM). A stock solution of 80 mg/100 mL of each of the TMZ esters (3h, 3i, 3j, 3k, 3l and 3n) were prepared in DMSO. The control reaction, without enzyme, was prepared by adding 3000 μL of buffer to the reaction vessel along with 56.25 μL of the stock solution. The test reaction, with enzyme, was prepared by adding 2999 μL of buffer to the reaction vessel along with 56.25 μL of TMZ ester. The final concentration of TMZ esters in the reaction vessels was 1.47 mg/100 mL. Porcine liver esterase (1 μL) was added to the test reaction at zero time (minutes). Both the control and test reactions were then incubated at 37 °C. Aliquots of 200 μL were transferred from the reaction vessels to 2 mL Eppendorf tubes, at 3 minute intervals for 30 minutes. The reaction was quenched by adding 200 μL of acetonitrile. […]
# SVGp12 = test: CellTiter-Glo cytotoxicity against normal SVGp12 cell line; format: cell-based; conditions: Homo sapiens, 144 hours incubation, IC50 ± SD (n = 3)
# Procedure: as §1, §2, §3, §4
# U87-MG cells = test: CellTiter-Glo cytotoxicity against U87-MG cells; format: cell-based; conditions: Homo sapiens, U-87 MG, 144 hours incubation, IC50 ± SD (n = 3)
# Procedure: as §1, §2, §3, §4
smiles,measurement,setting,value
"Cn1nnc2c(C(=O)Oc3ccc(C#N)cc3)ncn2c1=O [Analogue 3k, 4-Cyanophenyl 3-methyl-4-oxo-3,4-dihydroimidazo[5,1-d][1,2,3,5]tetrazine-8-carboxylate]",IC50,1321-N1,103 ± 7 µM
same,IC50,GOS-3,151 ± 4 µM
same,cytotoxicity against MGMT positive patient derived primary culture,BTNW374 (MGMT+),generated cytotoxicity at 75 μM
same,IC50,BTNW914 (MGMT−),< 15 µM
same,Time taken to hydrolyse 50% of the ester,[1],13.7 min
same,IC50,SVGp12,36 ± 3 µM
same,melting point,,192 °C
same,IC50,"U87-MG cells; initial screening, CellTiter-Glo, read-out: IC50 against U87-MG cells",138 ± 7 µM
same,IC50,"U87-MG cells; lead analogues (Table 2), read-out: IC50 U87-MG",137 ± 7 µM
